Our source for the EC50 and sustained efficacy values is patent US7485633B2, “Cyclopropyl fused indolobenzazepine HCV NS5B inhibitors” (Bristol-Myers Squibb Company, priority 2005, dated 2009).

In one assay the test system is HCV replicon cells. Nature of the assay: HCV replicon FRET assay. It is filed as cell-based. As to conditions: Hepatitis C virus. The text has this:
FRET Assay Preparation. To perform the HCV FRET screening assay, 96-well cell culture plates were used. The FRET peptide (Anaspec, Inc.) (Taliani et al., Anal. Biochem. 1996, 240, 60-67) contains a fluorescence donor, EDANS, near one end of the peptide and an acceptor, DABCYL, near the other end. The fluorescence of the peptide is quenched by […] resonance energy transfer (RET) between the donor and the acceptor, but as the NS3 protease cleaves the peptide the products are released from RET quenching and the fluorescence of the donor becomes apparent. The assay reagent was made as follows: 5× cell Luciferase cell culture lysis reagent from Promega (#E153A) diluted to 1× with dH2O, NaCl added to 150 mM final, the FRET peptide diluted to 20 uM final from a 2 mM stock.
To prepare plates, HCV replicon cells, with or without a Renilla luciferase reporter gene, were trypsinized and placed into each well of a 96-well plate with titrated test compounds added in columns 3 through 12; columns 1 and 2 contained a control compound (HCV protease inhibitor), and the bottom row contained cells without compound. The plates were then placed in a CO2 incubator at 37° C.
Assays. Subsequent to addition of the test compounds described above (FRET Assay Preparation), at various times the plate was removed and Alamar blue solution (Trek Diagnostics, #00-100) was added per well as a measure of cellular toxicity. After reading in a Cytoflour 4000 instrument (PE Biosystems), plates were rinsed with PBS and then used for FRET assay by the addition of 30 ul of the FRET peptide assay reagent described above (FRET Assay Preparation) per well. The plate was then placed into the Cytoflour 4000 instrument which had been set to 340 excite/490 emission, automatic mode for 20 cycles and the plate read in a kinetic mode. Typically, the signal to noise using an endpoint analysis after the reads was at least three-fold. Alternatively, after Alamar blue reading, plates were rinsed with PBS, 50 ul of DMEM (high glucose) without phenol red was added and plates were then used for luciferase assay using the Promega Dual-Glo Luciferase Assay System.
Compound analysis was determined by quantification of the relative HCV replicon inhibition and the relative cytotoxicity values. To calculate cytoxicity values, the average Alamar Blue fluorescence signals from the control wells were set as 100% non-toxic. The individual signals in each of the compound test wells were then divided by the average control signal and multiplied by 100% to determine […]. To calculate the HCV replicon inhibition values, an average background value was obtained from the two wells containing the highest amount of HCV protease inhibitor at the end of the assay period. These numbers were similar to those obtained from naïve Huh-7 cells.
The background numbers were then subtracted from the average signal obtained from the control wells and this number was used as 100% activity. The individual signals in each of the compound test wells were then divided by the averaged control values after background subtraction and multiplied by 100% to determine percent activity. EC50 values for a protease inhibitor titration were calculated as the concentration which caused a 50% reduction in FRET or luciferase activity. The two numbers generated for the compound plate, percent cytoxicity and percent activity were used to determine compounds of interest for further analysis.
The compound `O=C(O)c1ccc2c(C3CCCCC3)c3n(c2c1)C[C@@]1(C(=O)N2CCOCC2)C[C@H]1c1ccccc1-3` (single isomer, unassigned) gave a concentration giving a half-maximal response (EC50) of 20 to 1000 nM.
As to `O=C(O)c1ccc2c(C3CCCCC3)c3n(c2c1)C[C@]1(C(=O)N2CCOCC2)C[C@@H]1c1ccccc1-3` (single isomer, unassigned), the EC50 lay within 20 to 1000 nM.
Same read-out and setting: the same measure for `COc1ccc2c(c1)C1CC1(C(=O)N1CCOCC1)Cn1c-2c(C2CCCCC2)c2ccc(C(=O)NS(=O)(=O)N(C)C)cc21` (centres unmarked): 20 to 1000 nM; for `COC[C@@H]1CN(C(=O)C23CC2c2cc(OC)ccc2-c2c(C4CCCCC4)c4ccc(C(=O)NS(=O)(=O)N(C)C)cc4n2C3)CCO1` (some centres unmarked) [listing 1 of 2 here]: 97 to 1000 nM.
Consider `O=C(O)c1ccc2c(C3CCCCC3)c3n(c2c1)CC1(C(=O)N2CCOCC2)CC1c1ccccc1-3` (centres unmarked), for which the EC50 lay in the range of 20 to 1000 nM.
The compound `CN(C)S(=O)(=O)NC(=O)c1ccc2c(C3CCCCC3)c3n(c2c1)C[C@@]1(C(=O)N2CCOCC2)C[C@H]1c1ccccc1-3` (single isomer, unassigned) displayed a 50% effective concentration (EC50) of 20 to 1000 nM.
Same read-out and setting: with `COc1ccc2c(c1)C1CC1(C(=O)N1C[C@@H](C)N[C@@H](C)C1)Cn1c-2c(C2CCCCC2)c2ccc(C(=O)NS(=O)(=O)N(C)C)cc21` (some centres unmarked) the figure was 20 to 1000 nM.
The same measure, in the same setting: the same measure for `COC(=O)c1ccc2c(C3CCCCC3)c3n(c2c1)CC1(C(=O)OC)CC1c1cc(OC)ccc1-3` (centres unmarked): 20 to 1000 nM.
The same measure, in the same setting: with `CN(C)S(=O)(=O)NC(=O)c1ccc2c(C3CCCCC3)c3n(c2c1)CC1(C(=O)N2CCOCC2)CC1c1ccccc1-3` (centres unmarked) the figure was 20 to 1000 nM.
Compound `CN(C)S(=O)(=O)NC(=O)c1ccc2c(C3CCCCC3)c3n(c2c1)C[C@]1(C(=O)N2CCOCC2)C[C@@H]1c1ccccc1-3` (single isomer, unassigned) returned an EC50 of 20 to 1000 nM.
In turn, `COC[C@@H]1CN(C(=O)C23CC2c2cc(OC)ccc2-c2c(C4CCCCC4)c4ccc(C(=O)NS(=O)(=O)N(C)C)cc4n2C3)CCO1` (some centres unmarked) [listing 2 of 2 here] showed a half-maximal effective concentration (EC50) of 20 to 1000 nM.
Same read-out and setting: the same measure for `COC(=O)C12CC1c1cc(OC)ccc1-c1c(C3CCCCC3)c3ccc(C(=O)O)cc3n1C2` (centres unmarked): 1000 to 10000 nM; for `COC[C@H]1CN(C(=O)C23CC2c2cc(OC)ccc2-c2c(C4CCCCC4)c4ccc(C(=O)NS(=O)(=O)N(C)C)cc4n2C3)CCO1` (some centres unmarked): 20 to 1000 nM; for `COc1ccc2c(c1)C1CC1(C(=O)N1C[C@@H](C)O[C@@H](C)C1)Cn1c-2c(C2CCCCC2)c2ccc(C(=O)NS(=O)(=O)N(C)C)cc21` (some centres unmarked): 20 to 1000 nM.

Still in this assay, the particulars now being: Hepatitis C virus, HCV replicon cells, FRET assay; read-out: EC50.
On to `CCOc1ccc2c(c1)C1CC1(C(=O)N1CCOCC1)Cn1c-2c(C2CCCCC2)c2ccc(C(=O)O)cc21` (centres unmarked), for which the 50% effective concentration (EC50) was 20 to 1000 nM.
With `COc1ccc2c(c1)C1C[C@]1(C(=O)O)Cn1c-2c(C2CCCCC2)c2ccc(C(=O)NS(=O)(=O)N(C)C)cc21` (some centres unmarked), the EC50 lay within 1000 to 10000 nM.
Regarding `CC(C)Oc1ccc2c(c1)C1CC1(C(=O)N1CCOCC1)Cn1c-2c(C2CCCCC2)c2ccc(C(=O)NS(=O)(=O)N(C)C)cc21` (centres unmarked), the half-maximal effective concentration (EC50) lay within 20 to 1000 nM.
The same measure, in the same setting: the same measure for `CCN(CC)C1CCN(C(=O)C23CC2c2cc(OC)ccc2-c2c(C4CCCCC4)c4ccc(C(=O)NS(=O)(=O)N(C)C)cc4n2C3)CC1` (centres unmarked): 20 to 1000 nM; for `COc1ccc2c(c1)C1CC1(C(=O)N1CCOCC1)Cn1c-2c(C2CCCCC2)c2ccc(C(=O)NS(=O)(=O)N3CCOCC3)cc21` (centres unmarked): 20 to 1000 nM; for `CC(C)Oc1ccc2c(c1)C1CC1(C(=O)N1CCOCC1)Cn1c-2c(C2CCCCC2)c2ccc(C(=O)O)cc21` (centres unmarked): 20 to 1000 nM.
Still for that read-out and setting: the same measure for `COc1ccc2c(c1)C1C[C@@]1(C(=O)O)Cn1c-2c(C2CCCCC2)c2ccc(C(=O)NS(=O)(=O)N(C)C)cc21` (single isomer, unassigned): 1000 to 10000 nM; for `COC(=O)c1ccc2c(C3CCCCC3)c3n(c2c1)CC1(C(=O)N2CCOCC2)CC1c1cc(OC(C)C)ccc1-3` (centres unmarked): 20 to 1000 nM; for `COC(=O)c1ccc2c(C3CCCCC3)c3n(c2c1)CC1(C(=O)N2CCOCC2)CC1c1ccccc1-3` (centres unmarked): 20 to 1000 nM.
With `COc1ccc2c(c1)C1CC1(C(=O)N1CCC(N3CCOCC3)CC1)Cn1c-2c(C2CCCCC2)c2ccc(C(=O)NS(=O)(=O)C3CC3)cc21` (centres unmarked), the EC50 lay within 20 to 1000 nM.
Same read-out and setting: with `COc1ccc2c(c1OCc1ccccc1)C1CC1(C(=O)O)Cn1c-2c(C2CCCCC2)c2ccc(C(=O)NS(=O)(=O)N(C)C)cc21` (centres unmarked) the figure was greater than 1000 nM.
On the same count and under the same terms, with `CCc1ccc2c(c1)C1CC1(C(=O)N1CCOCC1)Cn1c-2c(C2CCCCC2)c2ccc(C(=O)O)cc21` (centres unmarked) the figure was 20 to 1000 nM.
Still for that read-out and setting: with `Cc1ccc2c(c1)C1CC1(C(=O)N1CCOCC1)Cn1c-2c(C2CCCCC2)c2ccc(C(=O)O)cc21` (centres unmarked) the figure was 20 to 1000 nM; with `CN(C)S(=O)(=O)NC(=O)c1ccc2c(C3CCCCC3)c3n(c2c1)CC1(C(=O)N2CCOCC2)CC1c1cc(O)ccc1-3` (centres unmarked), 20 to 1000 nM; with `C=Cc1ccc2c(c1)C1CC1(C(=O)N1CCOCC1)Cn1c-2c(C2CCCCC2)c2ccc(C(=O)O)cc21` (centres unmarked), 20 to 1000 nM.
Take `C[C@@H]1CN(C(=O)C23CC2c2cc(O)ccc2-c2c(C4CCCCC4)c4ccc(C(=O)NS(=O)(=O)N(C)C)cc4n2C3)C[C@H](C)O1` (some centres unmarked): the EC50 is 20 to 1000 nM.
The same measure, in the same setting: the same measure for `CCc1ccc2c(c1)C1CC1(C(=O)N1CCOCC1)Cn1c-2c(C2CCCCC2)c2ccc(C(=O)NS(=O)(=O)N(C)C)cc21` (centres unmarked): 20 to 1000 nM.
Still for that read-out and setting: the same measure for `COc1ccc2c(c1)C1C[C@]1(C(=O)N[C@@H]1C3CCC(C)([C@@H]1O)C3(C)C)Cn1c-2c(C2CCCCC2)c2ccc(C(=O)NS(=O)(=O)N(C)C)cc21` (some centres unmarked): 20 to 1000 nM; for `COC(=O)C12CC1c1cc(OC)ccc1-c1c(C3CCCCC3)c3ccc(C(=O)OC(C)(C)C)cc3n1C2` (centres unmarked): greater than 10000 nM; for `COc1ccc2c(c1)C1CC1(C(=O)N1CCOC(CN(C)C)C1)Cn1c-2c(C2CCCCC2)c2ccc(C(=O)NS(=O)(=O)C3CC3)cc21` (centres unmarked): 20 to 1000 nM.
The same measure, in the same setting: the same measure for `CCN(CC)C(=O)CN(C)C(=O)C12CC1c1cc(OC)ccc1-c1c(C3CCCCC3)c3ccc(C(=O)NS(=O)(=O)N(C)C)cc3n1C2` (centres unmarked): 20 to 1000 nM.
Turning to `COc1ccc2c(c1)[C@@H]1C[C@]1(C(=O)N1CCCC[C@@H]1CN(C)C)Cn1c-2c(C2CCCCC2)c2ccc(C(=O)NS(=O)(=O)N(C)C)cc21`, the EC50 lay in the range of 97 to 1000 nM.
On the same count and under the same terms, with `COc1ccc2c(c1)C1CC1(C(=O)N1CCOCC1)Cn1c-2c(C2CCCCC2)c2ccc(C(=O)O)cc21` (centres unmarked) the figure was 20 to 1000 nM; with `COc1ccc2c(c1)C1CC1(C(=O)N1CCOCC1)Cn1c-2c(C2CCCCC2)c2ccc(C(=O)NS(=O)(=O)N3CCN(C)CC3)cc21` (centres unmarked), 20 to 1000 nM.
The same measure, in the same setting: the same measure for `CC(C)c1ccc2c(c1)C1CC1(C(=O)N1CCOCC1)Cn1c-2c(C2CCCCC2)c2ccc(C(=O)O)cc21` (centres unmarked): 20 to 1000 nM; for `CCOc1ccc2c(c1)C1CC1(C(=O)N1CCOCC1)Cn1c-2c(C2CCCCC2)c2ccc(C(=O)NS(=O)(=O)N(C)C)cc21` (centres unmarked): 20 to 1000 nM.
Regarding `CCN(C)CCN(C)C(=O)C12CC1c1cc(OC)ccc1-c1c(C3CCCCC3)c3ccc(C(=O)NS(=O)(=O)N(C)C)cc3n1C2` (centres unmarked), the half-maximal effective concentration (EC50) is 97 to 1000 nM.
The same measure, in the same setting: the same measure for `C[C@@H]1CN(C(=O)C23CC2c2cc(OCc4ccccc4)ccc2-c2c(C4CCCCC4)c4ccc(C(=O)NS(=O)(=O)N(C)C)cc4n2C3)C[C@H](C)O1` (some centres unmarked): 20 to 1000 nM; for `COc1ccc2c(c1)C1CC1(C(=O)N1C[C@@H](C)O[C@@H](C)C1)Cn1c-2c(C2CCCCC2)c2ccc(C(=O)NS(C)(=O)=O)cc21` (some centres unmarked): 97 to 1000 nM; for `COC(=O)C12CC1c1cc(O)ccc1-c1c(C3CCCCC3)c3ccc(C(=O)NS(=O)(=O)N(C)C)cc3n1C2` (centres unmarked): 20 to 1000 nM.
The same measure, in the same setting: with `COc1ccc2c(c1)C1CC1(C(=O)N1CCOCC1)Cn1c-2c(C2CCCCC2)c2ccc(C(=O)NS(=O)(=O)C3CC3)cc21` (centres unmarked) the figure was 20 to 1000 nM; with `COc1ccc2c(c1)C1CC1(C(=O)N(C)C)Cn1c-2c(C2CCCCC2)c2ccc(C(=O)NS(=O)(=O)N(C)C)cc21` (centres unmarked), 20 to 1000 nM.
On the same count and under the same terms, the same measure for `COc1ccc2c(c1)C1CC1(C(=O)N1C[C@@H](C)O[C@@H](C)C1)Cn1c-2c(C2CCCCC2)c2ccc(C(=O)O)cc21` (some centres unmarked): 20 to 1000 nM; for `COc1ccc2c(c1)[C@@H]1C[C@]1(C(=O)N1CCCC[C@H]1CN(C)C)Cn1c-2c(C2CCCCC2)c2ccc(C(=O)NS(=O)(=O)N(C)C)cc21`: 97 to 1000 nM.
For the compound `COc1ccc2c(c1)C1CC1(C(=O)N1CCC(N3CCOCC3)CC1)Cn1c-2c(C2CCCCC2)c2ccc(C(=O)O)cc21` (centres unmarked), the concentration for a half-maximal effect (EC50) was in the range of 20 to 1000 nM.

In the next assay the test system is HCV.
Assay: not given
As to conditions: HCV patients, combination therapy; cited from earlier work.
As to alpha-interferon and ribavirin, the sustained efficacy is on record as 40 % of patients.

Broadly, the EC50 is the concentration that produces a half-maximal response.
